In US11730712B2, “Functionalized long-chain hydrocarbon mono- and di-carboxylic acids and derivatives thereof, and their use for the prevention or treatment of disease” (ESPERVITA THERAPEUTICS, INC., priority 2021, dated 2023):

System: liver fibrosis gene panel (770 genes)
Assay: Nanostring nCounter Fibrosis panel gene expression in liver of DEN-injected mice
Type: in vivo, mouse
Conditions: vs vehicle
Description: Nanostring Analysis. RNA was extracted from paired liver and tumor tissue from vehicle, Compound I-1 (100 mg/kg) and Compound I-32 (100 mg/kg) treated mice using an RNeasy kit (Qiagen, Calif., USA) as per manufacturer's protocol. All RNA samples passed the BioAnalyzer quality control test. The expression of target genes in liver and tumor were analyzed using the nCounter Fibrosis and Cancer Panel (NanoString Technologies, Inc., WA, USA), respectively according to manufacturer's protocol at the McMaster Genomics Facility. Technical and biological normalization against global geometric mean was performed in nSolver 4.0 software (NanoString Technologies). Technical normalization was performed in the nSolver software (version 4.0.70) by normalizing sample target raw counts to the geometric mean of positive control spike-ins. Biological normalization was performed by normalizing sample target raw counts to the geometric mean of selected housekeeping genes (Ppia, Nubp1, Nol7, Armh3, Rplp0, Cnot10, Pgk1, and Acad9). Pathway scores were calculated as the first principal component of the normalized expression values for all genes in each pathway and samples were compiled according to experimental groups to determine average pathway scores. Statistical significance was calculated between experimental groups using multiple t-tests and p-values were corrected for multiple comparisons using Benjamin-Hochberg false discovery rate.
Molecular analysis. To identify the pathways modulated in the liver and tumor tissue, nanostring analysis of fibrosis and cancer, pathways, respectively were completed in an n=8 mice treated with vehicle or Compound I-32 or Compound I-1 at 100 mg/kg.

## CC(C)(CCCCc1ccc(CCCCC(C)(C)C(=O)O)cc1)C(=O)O [Compound I-1, 6-[4-(5-carboxy-5-methylhexyl)-phenyl]-2,2-dimethylhexanoic acid]
NM_031197, 100 mg/kg
  Slc2a2 Log2FC: −0.543
NM_031248, 100 mg/kg
  Lamtor2 Log2FC: 0.195
NM_033325, 100 mg/kg
  Loxl2 Log2FC: −0.689
NM_033562, 100 mg/kg
  Derl2 Log2FC: −0.334
NM_080560, 100 mg/kg
  Ube2n Log2FC: −0.15
NM_130450, 100 mg/kg
  Elovl6 Log2FC: 0.819
NM_133360, 100 mg/kg
  Acaca Log2FC: 0.655
NM_133862, 100 mg/kg
  Fgg Log2FC: −0.517
NM_133904, 100 mg/kg
  Acacb Log2FC: 0.612
NM_134103, 100 mg/kg
  Il1rap Log2FC: −0.815
NM_138748, 100 mg/kg
  Ptpa Log2FC: 0.372
NM_139300, 100 mg/kg
  Mylk Log2FC: −0.458
NM_144559, 100 mg/kg
  Fcgr4 Log2FC: −0.541
NM_144903, 100 mg/kg
  Aldob Log2FC: −0.665
NM_144938, 100 mg/kg
  C1s1 Log2FC: −0.902
NM_145367, 100 mg/kg
  Txndc5 Log2FC: −0.284
NM_146145, 100 mg/kg
  Jak1 Log2FC: −0.203
NM_146148, 100 mg/kg
  C8a Log2FC: −1.21
NM_153179, 100 mg/kg
  Pkhd1 Log2FC: −0.99
NM_153505, 100 mg/kg
  Nckap1l Log2FC: −0.473
NM_172307, 100 mg/kg
  Mbtps2 Log2FC: 0.309
NM_177406, 100 mg/kg
  Cyp4a12a Log2FC: 1.65
NM_177470, 100 mg/kg
  Acaa2 Log2FC: 0.464
NM_177821, 100 mg/kg
  Ep300 Log2FC: −0.258
NM_178659, 100 mg/kg
  Jmjd4 Log2FC: −0.385
NM_178772, 100 mg/kg
  Nceh1 Log2FC: 0.592
NM_178878, 100 mg/kg
  Hadha Log2FC: 1.12
NM_180599, 100 mg/kg
  Mfap3 Log2FC: −0.377
NM_181849, 100 mg/kg
  Fgb Log2FC: −0.336
NM_198095, 100 mg/kg
  Bst2 Log2FC: 0.596
NM_207105, 100 mg/kg
  H2-Ab1 Log2FC: −0.716
NM_207625, 100 mg/kg
  Acsl4 Log2FC: 0.645
NM_207653, 100 mg/kg
  Cflar Log2FC: −0.214
NM_207655, 100 mg/kg
  Egfr Log2FC: −1.12
NM_207692, 100 mg/kg
  Mapk9 Log2FC: 0.185
NM_213659, 100 mg/kg
  Stat3 Log2FC: −0.646
NM_001001892, 100 mg/kg
  H2-K1 Log2FC: −0.284
NM_001001984, 100 mg/kg
  Kdm2a Log2FC: −0.312
NM_001025426, 100 mg/kg
  Depdc5 Log2FC: −0.27
NM_001025575, 100 mg/kg
  Cfhr2 Log2FC: −0.626
NM_001030274, 100 mg/kg
  Ndufs5 Log2FC: 0.414
NM_001033228, 100 mg/kg
  Itga1 Log2FC: −0.394
NM_001033305, 100 mg/kg
  Ndufb6 Log2FC: 0.243
NM_001037713, 100 mg/kg
  Xaf1 Log2FC: −0.742
NM_001038231, 100 mg/kg
  Banf1 Log2FC: 0.319
NM_001038627, 100 mg/kg
  Smurf1 Log2FC: −0.697
NM_001077403, 100 mg/kg
  Nrp2 Log2FC: 0.665
NM_001081211, 100 mg/kg
  Ptafr Log2FC: −0.518
NM_001081315, 100 mg/kg
  Brpf3 Log2FC: 0.434
NM_001099624, 100 mg/kg
  Rapgef2 Log2FC: −0.262
NM_001102410, 100 mg/kg
  Kng2 Log2FC: −0.305
NM_001109045, 100 mg/kg
  Aqp8 Log2FC: −0.993
NM_001111274, 100 mg/kg
  Igf1 Log2FC: −0.496
NM_001113379, 100 mg/kg
  Lrrc32 Log2FC: −0.438
NM_001113563, 100 mg/kg
  Stat5b Log2FC: −0.322
NM_001123382, 100 mg/kg
  Il1r1 Log2FC: −0.998
NM_001127338, 100 mg/kg
  Aldh7a1 Log2FC: −0.252
NM_001162410, 100 mg/kg
  Chuk Log2FC: 0.202
NM_001163507, 100 mg/kg
  Mmm1 Log2FC: −0.231
NM_001164661, 100 mg/kg
  Cyfip1 Log2FC: −0.264
NM_001165894, 100 mg/kg
  Akt1 Log2FC: −0.226
NM_001252472, 100 mg/kg
  Cd84 Log2FC: −0.439
NM_001277944, 100 mg/kg
  Apoc2 Log2FC: −1.26
NM_001291058, 100 mg/kg
  Cd68 Log2FC: −0.613
XM_897036, 100 mg/kg
  Col6a3 Log2FC: −1.06
